Source: US20200393345A1, “HEPARIN-BASED BLOOD SAMPLER WITHOUT PLATELET ACTIVATION” (Radiometer Medical ApS, priority 2017, published 2020)
“Also recorded” adds a separate entry of the source. Counter-ions that a name gives are not always drawn.

What was measured:
Format in all cases: cell-based
[1] = tested on: platelets; experiment: Manual platelet count (single platelets, platelet aggregates) in heparinized blood with anti-platelet agents, hemocytometer; settings: two concentration levels of drug, mixed 15 minutes; for Formation of platelet aggregates compared to LiHep and PicoSAM references / Number of platelet aggregates compared to EDTA / Single platelet count compared to LiHep and PicoSAM controls: venous whole blood in PICO70 samplers with heparin; for Single platelet count compared to EDTA reference: venous whole blood in PICO70 samplers with heparin 60 IU/mL (LiHep or PicoSAM)
Method: Each experiment was conducted on a separate day with blood from one voluntary donor testing one anti-platelet drug candidate. For each experiment PICO70 syringe samplers (Radiometer Medical ApS) were prepared just before sample drawing. For “LiHep” (Liquid Heparin) conditions, PICO70 samplers were emptied of the gold ball and heparin brick and 15 μl of aqueous liquid balanced heparin comprising heparin lithium (Celsus Laboratories) and heparin sodium (Celsus Laboratories) (final heparin conc. 60 IU/mL blood) and 15 μl of the solvent of the tested drug were added. For “PicoSAM” conditions, unmodified PICO70 samplers (with gold ball and heparin brick) were used and 15 μl of the solvent of the respective tested drug was added. For “LiHep xxx drug” conditions, PICO70 samplers were emptied as described for LiHep and 15 μl of liquid balanced heparin (final heparin conc. 60 IU/mL blood) and 15 μl of the dissolved tested drug were added. For “PicoSAM xxx drug” conditions, unmodified PICO70 samplers (with gold ball and heparin brick) were used and 15 μl of the dissolved tested drug was added. […] 600 μM and 6 mM) and dipyridamole (Sigma, D9766; dissolved in 1:10 or 1:100 DMSO in saline, final conc. 10 and 100 μM). An EDTA tube (BD Vacutainer with spray-coated K2EDTA, 10 ml) and duplicate samples of all conditions of PICO70 syringe samplers were filled by drawing venous blood via a butterfly needle using a sealed VTC (vented tip cap) to fill the otherwise self-aspirating PICO70 samplers with 1.5 mL venous whole blood. Samplers were inverted 8 times immediately after drawing to insure proper anticoagulation of the samples. The blood samples were mixed gently by hand (samplers without gold ball) or on a SAM mixer (Radiometer Medical ApS) for 15 minutes after drawing the sample. Mixed samples were fixed immediately with 10% formalin solution (1:1 dilution of blood in formalin) for at least 10 minutes and further diluted 1:10 in platelet dilution solution to hemolyze red blood cells (RBCs) to assessed manual platelet count using a hemocytometer. […] Single platelet counts were adjusted for dilution with liquid heparin and or dissolved drug solution to calculate single platelet concentrations.

[2] = tested on: WBCs (white blood cells) and platelets; experiment: Wet mount images of stained and hemolyzed blood samples; settings: for Platelets in stained wet mount images (single, aggregated, satellinism) / WBC aggregates in stained wet mount images: PicoSAM samples, 1 μM tirofiban, 20 μM eptifibatide, 100 nM iloprost
Method: Venous blood samples were drawn and mixed as described before in Example 1 and used to prepare stained wet mounts images. Blood samples were mixed with a staining and hemolyzing agent (methylene blue and deoxycholic acid, respectively) and incubated at 47° C. in a water bath for 30 seconds. Stained and hemolyzed blood samples were then prepared in wet mount samples on a glass slide and covered with a glass coverslip. Images of stained samples were then acquired with a Leica 750 microscope using a 40× air objective in bright field mode. An image processing software (FIJI, ImageJ) was used to select regions of interest (ROIs) of representative stained WBCs from the images.

[3] = tested on: platelets; experiment: Wet mount phase-contrast images of fixed blood samples, platelet aggregation; settings: fixed venous blood, 40x phase-contrast; eptifibatide 20 μM added to heparin
Text: Venous blood samples drawn, mixed and fixed with 10% formalin solution, as described before in Example 1 were used to prepare wet mounts on a glass slide and covered with a glass coverslip. Wet mount samples of fixed blood cells were then imaged with a Leica 750 microscope using a 40× phase-contrast air objective.

Compound | Formation of platelet aggregates compared to LiHep and PicoSAM references [1] | Single platelet count compared to EDTA reference [1] | Number of platelet aggregates compared to EDTA [1] | Platelets in stained wet mount images (single, aggregated, satellinism) [2] | WBC aggregates in stained wet mount images [2] | WBC aggregation in the blood sample (leukocyte activation) ([2]; statement in the description) | Single platelet count compared to LiHep and PicoSAM controls [1] | Platelet aggregates in microscopic images [3]
O=S(=O)([O-])[O-].[Mg+2] [MgSO4] | reduced the formation of platelet aggregates |  |  |  |  |  |  | 
CC#CCC(C)[C@H](O)/C=C/[C@@H]1[C@H]2C/C(=C/CCCC(=O)O)C[C@H]2C[C@H]1O (stereo partly drawn) [Iloprost, iloprost] | reduced the formation of platelet aggregates | comparable to standard EDTA anticoagulated blood | no or few aggregates | single platelets, not platelet satellinism | not platelet satellinism or WBC aggregates | very low WBC aggregation |  | 
N=C(N)NCCC[C@H](N)C(=O)O [L-Arginine] |  | decreased number of platelets | higher number of platelet aggregates |  |  |  | slightly higher platelet count | 
CCCCS(=O)(=O)N[C@@H](Cc1ccc(OCCCCC2CCNCC2)cc1)C(=O)O [Tirofiban, tirofiban hydrochloride monohydrate] | reduced the formation of platelet aggregates | comparable to standard EDTA anticoagulated blood | no or few aggregates | single platelets but also platelet satellinism | WBC aggregates were also observed |  |  | 
heparin |  |  |  |  |  |  |  | allows or even potentiates platelet aggregation; also recorded: showed platelet aggregates
eptifibatide acetate | reduced the formation of platelet aggregates | comparable to standard EDTA anticoagulated blood | no or few aggregates | single platelets but also platelet satellinism | WBC aggregates were also observed |  |  | cannot be observed; also recorded: cannot be seen
OCCN(CCO)c1nc(N2CCCCC2)c2nc(N(CCO)CCO)nc(N3CCCCC3)c2n1 [Dipyridamole, dipyridamole] |  |  |  |  |  |  | slightly higher platelet number | 
O=C(O)CN(CCN(CC(=O)O)CC(=O)O)CC(=O)O [EDTA, Ethylenediaminetetraacetic acid] |  |  |  | same results | same results |  |  | prevents platelet activation and maintains single platelets; also recorded: cannot be seen
Clc1ccccc1CN1CCc2sccc2C1 [Ticlopidine LiHep, ticlopidine hydrochloride] | slightly reduced number of aggregates |  |  |  |  |  |  | 
